Test results: publication PMC10046693, “KI04 an Aminoglycosides-Derived Molecule Acts as an Inhibitor of Human Connexin46 Hemichannels Expressed in HeLa Cells” (Biomolecules, 2023)

What was measured:
[1] = target: T1, Connexin46 (Cx46) hemichannel (Homo sapiens, UniProt Q9Y6H8); test: DAPI uptake dose response in Cx46tGFP HeLa cells; whole-cell patch clamp ([…] KI04 decreased currents); format: cell-based
T1 construct: gene GJA3; human Cx46tGFP (turbo GFP fusion) expressed in HeLa cells

[2] = target: T1, Connexin46 (Cx46) hemichannel; test: DAPI uptake dose response in Cx46tGFP HeLa cells; format: cell-based

SMILES	IC50 [1]	IC50 [2]
CCCCCCCCCCCC(=O)NC[C@@H]1O[C@H](O[C@H]2[C@H](O)[C@@H](O[C@H]3O[C@H](CO)[C@@H](O)[C@H](N)[C@H]3O)[C@H](N)C[C@@H]2N)[C@H](O)[C@@H](O)[C@@H]1O [KI04]	~7.7 µM	
NC[C@H]1O[C@H](O[C@H]2[C@H](O)[C@@H](O[C@H]3O[C@H](CO)[C@@H](O)[C@H](N)[C@H]3O)[C@H](N)C[C@@H]2N)[C@H](O)[C@@H](O)[C@@H]1O [kanamycin]		1.7 µM
